The values that follow come from patent US9458172B2, “Pyridinyl and pyrimidinyl sulfoxide and sulfone derivatives” (priority 2012, dated 2016).

The target in one assay is NAMPT (Homo sapiens (Human), UniProt P43490). As to the kind of experiment: Biochemical Inhibition Assay (NAMPT enzymatic reaction, NMN quantified by mass spectrometry). The settings on record: 33 nM recombinant His-tagged NAMPT, 1 μM NAM, 30 min at rt. Here is the method: Assay 1: Biochemical Inhibition Assay
NAMPT protein purification. Recombinant His-tagged NAMPT was produced in E. coli cells, purified over a Ni column, and further purified over a size-exclusion column by XTAL Biostructures.
The NAMPT Enzymatic Reaction. The NAMPT enzymatic reactions were carried out in Buffer A (50 mM Hepes pH 7.5, 50 mM NaCl, 5 mM MgCl2, and 1 mM THP) in 96-well V-bottom plates. The compound titrations were performed in a separate dilution plate by serially diluting the compounds in DMSO to make a 100× stock. […] The compound and enzyme mixture was incubated for 15 min at rt, then 10 μL of 10× substrate and co-factors in Buffer A were added to the test well to make a final concentration of 1 μM NAM, […] 5-Phospho-D-ribose 1-diphosphate (PRPP), and 2.5 mM Adenosine 5′-triphosphate (ATP). The reaction was allowed to proceed for 30 min at rt, then was quenched with the addition of 11 μL of a solution of formic acid and L-Cystathionine to make a final concentration of 1% formic acid and 10 μM L-Cystathionine. Background and signal strength was determined by addition (or non-addition) of a serial dilution of NMN to a pre-quenched enzyme and cofactor mix.
Quantification of NMN. A mass spectrometry-based assay was used to measure the NAMPT reaction product, β-nicotinamide mononucleotide (NMN), and the internal control (L-Cystathionine). NMN and L-Cystathionine were detected using the services of Biocius Lifesciences with the RapidFire system. In short, the NMN and L-Cystathionine were bound to a graphitic carbon cartridge in 0.1% formic acid, eluted in 30% acetonitrile buffer, and injected into a Sciex 4000 mass spectrometer. The components of the sample were ionized with electrospray ionization and the positive ions were detected. […] The fragments are quantified and the analyzed by the following method.
Determination of IC50 Values. First, the NMN signal was normalized to the L-Cystathionine signal by dividing the NMN signal by the L-Cystathionine signal for each well. The signal from the background wells were averaged and subtracted from the test plates.

The test system of another assay is A2780 cells. Nature of the assay: In-Vitro Cell Proliferation Assay (SRB).
Where [1] appears, read: Homo sapiens, A2780, 72 h, read-out: Cell Proliferation (IC50).
Where [2] appears, read: read-out: Cell Proliferation (IC50), A2780 cells, 72 h, sulforhodamine B.
[3] abbreviates: Homo sapiens, A2780, 72 h, read-out: Cell Proliferation (IC50), A2780 cells, 72 h, sulforhodamine B.

Like-named read-outs stand apart in the source and are kept apart here.

Chain of NAMPT (P43490 whole entry): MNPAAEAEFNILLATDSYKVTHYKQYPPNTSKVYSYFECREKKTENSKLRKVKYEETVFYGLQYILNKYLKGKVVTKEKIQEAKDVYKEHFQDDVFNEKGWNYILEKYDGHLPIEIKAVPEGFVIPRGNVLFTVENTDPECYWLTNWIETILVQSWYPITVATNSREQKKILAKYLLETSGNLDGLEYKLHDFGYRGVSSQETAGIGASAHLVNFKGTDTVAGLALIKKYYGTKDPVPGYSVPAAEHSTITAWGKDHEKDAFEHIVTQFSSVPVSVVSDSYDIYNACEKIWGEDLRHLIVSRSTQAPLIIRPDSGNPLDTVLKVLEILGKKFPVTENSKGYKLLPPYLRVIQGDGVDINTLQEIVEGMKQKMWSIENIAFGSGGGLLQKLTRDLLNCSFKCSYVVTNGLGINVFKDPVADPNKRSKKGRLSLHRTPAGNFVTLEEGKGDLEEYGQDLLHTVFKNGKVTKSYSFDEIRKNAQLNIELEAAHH

For the compound `CN(C)c1ccc(S(=O)(=O)c2ccc(CNC(=O)c3ccc4nccn4c3)nc2)cn1` [Example 83, Imidazo[1,2-a]pyridine-6-carboxylic acid [5-(6-dimethylamino-pyridine-3-sulfonyl)-pyridin-2-ylmethyl]-amide], the IC50 at NAMPT was determined as 0.0091 µM; in the assay on A2780 cells (setting [1]) it was 0.0073 µM.

With `CN1CCN(c2ccc(S(=O)(=O)c3ccc(CNC(=O)c4cc5ccncc5o4)nc3)cn2)CC1` [Example 135, N-[[5-[[6-(4-methylpiperazin-1-yl)-3-pyridyl]sulfonyl]-2-pyridyl]methyl]furo[2,3-c]pyridine-2-carboxamide], the IC50 at NAMPT turned out to be 0.018 µM; with A2780 cells (setting [2]), 0.0344 µM. In the case of `O=C(NCc1ccc(S(=O)(=O)C2CCNCC2)cn1)c1cc2ccncc2o1` [Example 26, Furo[2,3-c]pyridine-2-carboxylic acid [5-(piperidine-4-sulfonyl)-pyridin-2-ylmethyl]-amide], the IC50 on NAMPT is 0.204 µM; in the assay with A2780 cells (setting [1]), 2 µM. In the same order, the values of `O=C(NCc1ncc(S(=O)(=O)c2ccccc2)cn1)c1cc2ccncc2s1` [Example 187, N-[[5-(benzenesulfonyl)pyrimidin-2-yl]methyl]thieno[2,3-c]pyridine-2-carboxamide] are 0.433 µM and 2 µM. For `O=C(NCc1ccc([S+]([O-])c2cc(F)cc(F)c2)cn1)c1cc2cnccc2[nH]1` (racemic) [Example 9, 1H-Pyrrolo[3,2-c]pyridine-2-carboxylic acid [5-(3,5-difluoro-benzenesulfinyl)-pyridin-2-ylmethyl]-amide (racemic)], in that order: 0.0553 µM and 0.209 µM. Regarding `O=C(NCc1ccc(S(=O)(=O)C2CCOCC2)cn1)c1cc2ccncc2o1` [Example 51, Furo[2,3-c]pyridine-2-carboxylic acid [5-(tetrahydro-pyran-4-sulfonyl)-pyridin-2-ylmethyl]-amide], the IC50 came to 0.17 µM on NAMPT and 0.301 µM with A2780 cells (setting [1]). In the case of `O=C(NCc1ccc([S+]([O-])c2cc(F)cc(F)c2)cn1)N1Cc2ccncc2C1` (single isomer, unassigned; enantiomer 1) [Example 159, N-[[5-(3,5-difluorophenyl)sulfinyl-2-pyridyl]methyl]-1,3-dihydropyrrolo[3,4-c]pyridine-2-carboxamide (enantiomer 1)], the IC50 on NAMPT amounted to 0.635 µM; with A2780 cells (setting [2]), 2 µM. As for `N#Cc1cccc(S(=O)(=O)c2ccc(CNC(=O)c3cnc4[nH]ncc4c3)nc2)c1` [Example 156, N-[[5-(3-cyanophenyl)sulfonyl-2-pyridyl]methyl]-1H-pyrazolo[3,4-b]pyridine-5-carboxamide], the IC50 was 0.452 µM on NAMPT and 0.94 µM in the assay with A2780 cells (setting [1]). For `O=C(NCc1ccc(S(=O)(=O)N2CCC(N3CCCC3)CC2)cn1)N1Cc2ccncc2C1` [Example 148, N-[[5-[(4-pyrrolidin-1-yl-1-piperidyl)sulfonyl]-2-pyridyl]methyl]-1,3-dihydropyrrolo[3,4-c]pyridine-2-carboxamide], in that order: 0.0757 µM and 0.0852 µM. For `N#Cc1cccc(S(=O)(=O)c2ccc(CNC(=O)c3ccc4nccn4c3)nc2)c1` [Example 155, N-[[5-(3-cyanophenyl)sulfonyl-2-pyridyl]methyl]imidazo[1,2-a]pyridine-6-carboxamide], in that order: 0.074 µM and 0.0897 µM. For `CCS(=O)(=O)c1cccc(S(=O)(=O)c2ccc(CNC(=O)N3Cc4ccncc4C3)nc2)c1` [Example 114, N-[[5-(3-ethylsulfonylphenyl)sulfonyl-2-pyridyl]methyl]-1,3-dihydropyrrolo(3,4-c]pyridine-2-carboxamide], in that order: 0.00212 µM and 0.134 µM.

Take `O=C(NCc1ccc([S+]([O-])c2cccc(OC(F)(F)F)c2)cn1)c1ccc2nccn2c1` (racemic) [Example 101, Imidazo[1,2-a]pyridine-6-carboxylic acid [5-(3-trifluoromethoxy-benzenesulfinyl)-pyridin-2-ylmethyl]-amide (racemic)]: the IC50 at NAMPT stood at 0.0315 µM; in the assay with A2780 cells (setting [3]), 0.0402 µM. For `COc1ccc(S(=O)(=O)c2ccc(CNC(=O)c3cnc4[nH]ncc4c3)nc2)cc1OC` [Example 70, 1H-Pyrazolo[3,4-b]pyridine-5-carboxylic acid [5-(3,4-dimethoxy-benzenesulfonyl)-pyridin-2-ylmethyl]-amide], in that order: 0.0485 µM and 0.0246 µM. For the compound `CS(=O)(=O)c1cccc(S(=O)(=O)c2ccc(CNC(=O)c3ccc4nccn4c3)nc2)c1` [Example 137, N-[[5-(3-methylsulfonylphenyl)sulfonyl-2-pyridyl]methyl]imidazo[1,2-a]pyridine-6-carboxamide], the IC50 at NAMPT came out at 0.0568 µM; in the assay on A2780 cells (setting [1]), 0.0816 µM. In the same order, the values of `CCN(C)c1ncc(S(=O)(=O)c2ccc(CNC(=O)N3Cc4ccncc4C3)nc2)s1` [Example 147, N-[[5-[2-[ethyl(methyl)amino]thiazol-5-yl]sulfonyl-2-pyridyl]methyl]-1,3-dihydropyrrolo[3,4-c]pyridine-2-carboxamide] are 0.00683 µM and 0.00597 µM. In the case of `O=C(NCc1ncc(S(=O)(=O)c2ccccc2)cn1)c1ccc2nccn2c1` [Example 8, Imidazo[1,2-a]pyridine-6-carboxylic acid (5-benzenesulfonyl-pyrimidin-2-ylmethyl)-amide], the IC50 turned out to be 0.352 µM on NAMPT and 0.459 µM with A2780 cells (setting [3]).

Take `O=C(NCc1ccc(S(=O)(=O)c2ccc(N3CCOCC3)nc2)cn1)c1ccc2nccn2c1` [Example 35, Imidazo[1,2-a]pyridine-6-carboxylic acid [5-(6-morpholin-4-yl-pyridine-3-sulfonyl)-pyridin-2-ylmethyl]-amide]: the IC50 is 0.0086 µM on NAMPT and 0.002 µM in the assay with A2780 cells (setting [1]). For `O=C(NCc1ccc(S(=O)(=O)c2ccc(C(F)(F)F)nc2)cn1)c1cc2ccncc2s1` [Example 78, Thieno[2,3-c]pyridine-2-carboxylic acid [5-(6-trifluoromethyl-pyridine-3-sulfonyl)-pyridin-2-ylmethyl]-amide], in that order: 0.0594 µM and 0.551 µM. As for `O=C(NCc1ccc(S(=O)(=O)c2ccc(C(F)(F)F)nc2)cn1)c1cc2ccncc2o1` [Example 79, Furo[2,3-c]pyridine-2-carboxylic acid [5-(6-trifluoromethyl-pyridine-3-sulfonyl)-pyridin-2-ylmethyl]-amide], the results for the IC50 on NAMPT and with A2780 cells (setting [1]) were 0.0205 µM and 0.124 µM, respectively. For `N#Cc1cccc(S(=O)(=O)c2ccc(CNC(=O)N3Cc4ccncc4C3)nc2)c1` [Example 158, N-[[5-(3-cyanophenyl)sulfonyl-2-pyridyl]methyl]-1,3-dihydropyrrolo[3,4-c]pyridine-2-carboxamide], in that order: 0.156 µM and 2 µM. In the case of `O=C(NCc1ccc([S+]([O-])c2cc(F)cc(F)c2)cn1)c1ccc2nccn2c1` (racemic) [Example 55, Imidazo[1,2-a]pyridine-6-carboxylic acid [5-(3,5-difluoro-benzenesulfinyl)-pyridin-2-ylmethyl]-amide (racemic)], the results for the IC50 at NAMPT and in the assay with A2780 cells (setting [2]) were 0.0159 µM and 0.0419 µM, respectively. On to `O=C(NCc1ccc(S(=O)(=O)c2ccccc2)cn1)N1Cc2cn[nH]c2C1` [Example 178, N-[[5-(benzenesulfonyl)-2-pyridyl]methyl]-4,6-dihydro-1H-pyrrolo[3,4-c]pyrazole-5-carboxamide], for which the IC50 on NAMPT and in the assay with A2780 cells (setting [1]) was 2 µM each time. Consider `O=C(NCc1ccc(S(=O)(=O)C2CCN(C3CCOCC3)CC2)cn1)c1cc2ccncc2o1` [Example 105, Furo[2,3-c]pyridine-2-carboxylic acid {5-[1-(tetrahydro-pyran-4-yl)-piperidine-4-sulfonyl]-pyridin-2-ylmethyl)-amide], for which, in the assay on A2780 cells (setting [3]), the IC50 was found to be 0.0286 µM. On the same count and under the same terms, for `O=C(NCc1ccc(S(=O)(=O)c2cccc(C(F)(F)F)c2)cn1)c1cc2ccncc2o1` [Example 22, Furo[2,3-c]pyridine-2-carboxylic acid [5-(3-trifluoromethyl-benzenesulfonyl)-pyridin-2-ylmethyl]-amide] the value was 0.0054 µM.

As to `CC(C)n1cc(S(=O)(=O)c2ccc(CNC(=O)c3cc4ccncc4o3)nc2)cn1` [Example 62, Furo[2,3-c]pyridine-2-carboxylic acid [5-(1-isopropyl-1H-pyrazole-4-sulfonyl)-pyridin-2-ylmethyl]-amide], the IC50 in the assay with A2780 cells (setting [3]) was found to be 0.0116 µM.
